Test results published in patent US10590128B2, “6,7,8,9-tetrahydro-5H-pyrido[2,3-d]azepine dopamine D3 ligands” (Pfizer Inc., priority 2016, dated 2020).

Assays:
[1] = biological target: human dopamine D2 receptor (hD2R) (Homo sapiens, UniProt P14416); assay: Human D2 receptor binding assay ([^3H]-Spiperone); conditions: CHO cells expressing hD2R, geometric mean of 2-5 determinations unless marked b (single determination)
[2] = biological target: human dopamine D3 receptor (hD3R) (Homo sapiens, UniProt P35462); assay: Human D3 receptor binding assay ([^3H]-7-OH-DPAT); conditions: CHO cells expressing hD3R, geometric mean of 2-5 determinations unless marked b (single determination), read-out: hD3 in CHO cells Ki
Chain of human dopamine D3 receptor (hD3R) (P35462 whole entry): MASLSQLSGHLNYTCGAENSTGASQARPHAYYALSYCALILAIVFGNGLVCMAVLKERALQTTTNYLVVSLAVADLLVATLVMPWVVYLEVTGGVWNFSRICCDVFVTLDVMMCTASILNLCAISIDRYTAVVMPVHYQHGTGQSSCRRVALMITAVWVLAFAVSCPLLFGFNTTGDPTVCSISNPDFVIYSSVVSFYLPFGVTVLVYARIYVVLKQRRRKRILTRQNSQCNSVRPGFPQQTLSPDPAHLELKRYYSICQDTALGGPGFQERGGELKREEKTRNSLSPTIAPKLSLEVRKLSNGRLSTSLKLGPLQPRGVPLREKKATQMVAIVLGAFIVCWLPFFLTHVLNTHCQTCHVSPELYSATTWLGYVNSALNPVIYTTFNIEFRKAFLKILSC

Chain of human dopamine D2 receptor (hD2R) (P14416 whole entry): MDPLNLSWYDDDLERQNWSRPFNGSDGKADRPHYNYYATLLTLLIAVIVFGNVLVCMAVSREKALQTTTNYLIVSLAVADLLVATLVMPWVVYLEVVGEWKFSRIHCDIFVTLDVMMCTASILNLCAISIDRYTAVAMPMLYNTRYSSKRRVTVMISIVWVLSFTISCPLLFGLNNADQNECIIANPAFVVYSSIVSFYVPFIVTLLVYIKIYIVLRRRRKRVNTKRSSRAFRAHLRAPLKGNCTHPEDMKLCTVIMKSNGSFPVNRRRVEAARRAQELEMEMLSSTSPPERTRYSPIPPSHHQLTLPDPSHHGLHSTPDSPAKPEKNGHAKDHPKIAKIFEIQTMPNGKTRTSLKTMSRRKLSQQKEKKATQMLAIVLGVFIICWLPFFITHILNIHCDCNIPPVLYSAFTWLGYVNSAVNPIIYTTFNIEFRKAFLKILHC

SMILES	Ki [1] [nM]	Ki [2] [nM]
COc1nc2c(cc1NS(=O)(=O)c1ccc(C3CC(F)CCO3)cc1)CCN(C)CC2 (single isomer, unassigned; diastereomer-2) [Example 109, 4-(4-fluorotetrahydro-2H-pyran-2-yl)-N-(2-methoxy-7-methyl-6,7,8,9-tetrahydro-5H-pyrido[2,3-d]azepin-3-yl)benzenesulfonamide, diastereomer-2]	208	3.16
COc1nc2c(cc1NS(=O)(=O)c1ccc(C3CCCOC3)cc1)CCN(C)CC2 (racemic) [Example 77, N-(2-methoxy-7-methyl-6,7,8,9-tetrahydro-5H-pyrido[2,3-d]azepin-3-yl)-4-(tetrahydro-2H-pyran-3-yl)benzenesulfonamide]	549	4.52
COc1nc2c(cc1NS(=O)(=O)c1cnc(C3CCCC3)nc1)CCN(C)CC2 [Example 123, 2-cyclopentyl-N-(2-methoxy-7-methyl-6,7,8,9-tetrahydro-5H-pyrido[2,3-d]azepin-3-yl)pyrimidine-5-sulfonamide]	164	12.9
COc1nc2c(cc1NS(=O)(=O)c1ccc([C@H]3CCCO3)cc1)CCN(C)CC2 [Example 99, N-(2-methoxy-7-methyl-6,7,8,9-tetrahydro-5H-pyrido[2,3-d]azepin-3-yl)-4-[(2R)-tetrahydrofuran-2-yl]benzenesulfonamide]	314	3.05
CCN1CCc2cc(NS(=O)(=O)c3ccc(Cl)cc3)c(C)nc2CC1 [Example 138, 4-chloro-N-(7-ethyl-2-methyl-6,7,8,9-tetrahydro-5H-pyrido[2,3-d]azepin-3-yl)benzenesulfonamide]	> 4190	288
COc1nc2c(cc1NS(=O)(=O)c1ccc([C@H]3CC[C@H](OC)CC3)cc1)CCN(C)CC2 [Example 38, 4-(trans-4-methoxycyclohexyl)-N-(2-methoxy-7-methyl-6,7,8,9-tetrahydro-5H-pyrido[2,3-d]azepin-3-yl)benzenesulfonamide]	339	2.93
COc1nc2c(cc1NS(=O)(=O)c1ccc(C3CCOC(C)(C)C3)cc1)CCN(C)CC2 (single isomer, unassigned) [Example 87]	276	3.61
CCCN1CCc2cc(NS(=O)(=O)c3ccc(C(C)C)cc3)c(OC)nc2CC1 [Example 49, N-(2-methoxy-7-propyl-6,7,8,9-tetrahydro-5H-pyrido[2,3-d]azepin-3-yl)-4-(propan-2-yl)benzenesulfonamide]	102	0.88
COc1nc2c(cc1NS(=O)(=O)c1cnc(OC(C)(C)C)nc1)CCN(C)CC2 [Example 117, 2-tert-butoxy-N-(2-methoxy-7-methyl-6,7,8,9-tetrahydro-5H-pyrido[2,3-d]azepin-3-yl)pyrimidine-5-sulfonamide]	464	9.93
COc1nc2c(cc1NS(=O)(=O)c1ccc(C3CCCOC3)cc1)CCN(C)CC2 (single isomer, unassigned) [Example 83]	436	4.69
CCN1CCc2cc(NS(=O)(=O)c3ccc(C4CCOCC4)cc3)c(OC)nc2CC1 [Example 57, N-(7-ethyl-2-methoxy-6,7,8,9-tetrahydro-5H-pyrido[2,3-d]azepin-3-yl)-4-(tetrahydro-2H-pyran-4-yl)benzenesulfonamide]	229	3.14

Further lines, results first:

Ki [1] [nM]	Ki [2] [nM]	SMILES
142	3.58	COc1nc2c(cc1NS(=O)(=O)c1cnc(OC3CCCC3)nc1)CCN(C)CC2 [Example 18, 2-(cyclopentyloxy)-N-(2-methoxy-7-methyl-6,7,8,9-tetrahydro-5H-pyrido[2,3-d]azepin-3-yl)pyrimidine-5-sulfonamide]
> 3140	23.6	CCO[C@H]1C[C@@H](c2ccc(S(=O)(=O)Nc3cc4c(nc3OC)CCN(C)CC4)cn2)C1 [Example 135, 6-(cis-3-ethoxycyclobutyl)-N-(2-methoxy-7-methyl-6,7,8,9-tetrahydro-5H-pyrido[2,3-d]azepin-3-yl)pyridine-3-sulfonamide]
1810	14.8	CCO[C@H]1C[C@H](c2ccc(S(=O)(=O)Nc3cc4c(nc3OC)CCN(C)CC4)cn2)C1 [Example 134, 6-(trans-3-ethoxycyclobutyl)-N-(2-methoxy-7-methyl-6,7,8,9-tetrahydro-5H-pyrido[2,3-d]azepin-3-yl)pyridine-3-sulfonamide]
488	4.01	COc1nc2c(cc1NS(=O)(=O)c1ccc([C@@H]3CCCO3)cc1)CCN(C)CC2 [Example 98, N-(2-methoxy-7-methyl-6,7,8,9-tetrahydro-5H-pyrido[2,3-d]azepin-3-yl)-4-[(2S)-tetrahydrofuran-2-yl]benzenesulfonamide]
388	2.33	CCN1CCc2cc(NS(=O)(=O)c3ccc(C)c(C)c3)c(OC)nc2CC1 [Example 61, N-(7-ethyl-2-methoxy-6,7,8,9-tetrahydro-5H-pyrido[2,3-d]azepin-3-yl)-3,4-dimethylbenzenesulfonamide]
727	2.71	CCN1CCc2cc(NS(=O)(=O)c3ccc(C4(F)CCC(OC)CC4)cc3)c(OC)nc2CC1 (single isomer, unassigned) [Example 94, N-(7-ethyl-2-methoxy-6,7,8,9-tetrahydro-5H-pyrido[2,3-d]azepin-3-yl)-4-(1-fluoro-4-methoxycyclohexyl)benzenesulfonamide]
503	4.58	COc1nc2c(cc1NS(=O)(=O)c1ccc(C3CCCOC3)cc1)CCN(C)CC2 (single isomer, unassigned) [Example 84]
337	3.2	CCCN1CCc2cc(NS(=O)(=O)c3ccc(OCC)cc3)c(OC)nc2CC1 [Example 50, 4-ethoxy-N-(2-methoxy-7-propyl-6,7,8,9-tetrahydro-5H-pyrido[2,3-d]azepin-3-yl)benzenesulfonamide]
564	1.24	COc1nc2c(cc1NS(=O)(=O)c1ccc3c(c1)CCCO3)CCN(C)CC2 [Example 31, N-(2-methoxy-7-methyl-6,7,8,9-tetrahydro-5H-pyrido[2,3-d]azepin-3-yl)-3,4-dihydro-2H-chromene-6-sulfonamide]
320	4.31	COc1nc2c(cc1NS(=O)(=O)c1ccc(C3CC(F)CCO3)cc1)CCN(C)CC2 (single isomer, unassigned) [Example 106, 4-(4-fluorotetrahydro-2H-pyran-2-yl)-N-(2-methoxy-7-methyl-6,7,8,9-tetrahydro-5H-pyrido[2,3-d]azepin-3-yl)benzenesulfonamide]
3300	27.5	CCc1nc2c(cc1NS(=O)(=O)c1ccc([C@H]3CCCCO3)cc1)CCN(C)CC2 [Example 140, N-(2-ethyl-7-methyl-6,7,8,9-tetrahydro-5H-pyrido[2,3-d]azepin-3-yl)-4-[(2R)-tetrahydro-2H-pyran-2-yl]benzenesulfonamide]
342	4.37	COc1nc2c(cc1NS(=O)(=O)c1ccc(OC3CCOC3)cc1)CCN(C)CC2 (centres unmarked) [Example 82, N-(2-methoxy-7-methyl-6,7,8,9-tetrahydro-5H-pyrido[2,3-d]azepin-3-yl)-4-(tetrahydrofuran-3-yloxy)benzenesulfonamide]
1930	15.1	COc1nc2c(cc1NS(=O)(=O)c1ccc(C3CC(F)CCO3)cc1)CCN(C)CC2 (single isomer, unassigned; diastereomer-1) [Example 108, 4-(4-fluorotetrahydro-2H-pyran-2-yl)-N-(2-methoxy-7-methyl-6,7,8,9-tetrahydro-5H-pyrido[2,3-d]azepin-3-yl)benzenesulfonamide, diastereomer-1]
395	2.94	CCN1CCc2cc(NS(=O)(=O)c3ccc(Oc4ccccc4)nc3)c(OC)nc2CC1 [Example 60, N-(7-ethyl-2-methoxy-6,7,8,9-tetrahydro-5H-pyrido[2,3-d]azepin-3-yl)-6-phenoxypyridine-3-sulfonamide]
367	2.23	CCO[C@H]1C[C@@](F)(c2ccc(S(=O)(=O)Nc3cc4c(nc3OC)CCN(C)CC4)cc2)C1 [Example 132, 4-(trans-3-ethoxy-1-fluorocyclobutyl)-N-(2-methoxy-7-methyl-6,7,8,9-tetrahydro-5H-pyrido[2,3-d]azepin-3-yl)benzenesulfonamide]
122	2.41	COc1nc2c(cc1NS(=O)(=O)c1ccc(C3CCCC3)nc1)CCN(C)CC2 [Example 16, 6-cyclopentyl-N-(2-methoxy-7-methyl-6,7,8,9-tetrahydro-5H-pyrido[2,3-d]azepin-3-yl)pyridine-3-sulfonamide]
7.24	0.46	CCN1CCc2cc(NS(=O)(=O)c3ccc([C@H]4CCCCO4)c(C)c3)c(OC)nc2CC1 [Example 107, N-(7-ethyl-2-methoxy-6,7,8,9-tetrahydro-5H-pyrido[2,3-d]azepin-3-yl)-3-methyl-4-[(2R)-tetrahydro-2H-pyran-2-yl]benzenesulfonamide]
